Test results from PMC8998803, “Fragment-Based Discovery of AF9 YEATS Domain Inhibitors” (International Journal of Molecular Sciences, 2022).

Legend:
MCF7 = system: MCF7; set-up: method as in PMID 30288907; settings: cited from earlier work
[1] = system: the rest of the 59 cell lines; set-up: method as in PMID 30288907; settings: cited from earlier work
AF9 YEATS domain [2] = target: T1, AF9 YEATS domain (Homo sapiens, UniProt P42568); assay: NMR chemical shift perturbation titration of 15N-labeled AF9 YEATS domain; type: binding; settings: for Kd: from dose-dependent chemical shift perturbations, ± fitting error; for LE: ligand efficiency, Table 1
T1 construct: DNA fragment encoding AF9 YEATS domain (residues 1–138) was amplified and cloned into the pET28a vector; made in house; host or cells: Escherichia coli BL21 (DE3)
T1 sequence (P42568 1-138): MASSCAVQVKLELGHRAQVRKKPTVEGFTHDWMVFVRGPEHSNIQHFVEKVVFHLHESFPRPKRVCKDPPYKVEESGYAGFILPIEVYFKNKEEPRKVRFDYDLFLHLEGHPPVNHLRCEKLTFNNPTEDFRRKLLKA
Text: (§1) To further validate the results of ligand-observed fragment-based screening, we titrated these hits with the ^15N-labeled AF9 YEATS domain (Figure 1B). The backbone chemical shift assignment was retrieved from the literature. […] These residues were then mapped to the surface of the crystal structure of the AF9 YEATS domain in complex with H3K9ac (PDB code: 4TMP), which indicated the binding of these hits to the same pocket for acyl-lysine recognition (Figure 1D). The binding affinity of hit 2 was then determined by best fitting the dose-dependent CSPs of these residues (Figure 1E) at 0.07 ± 0.01 mM (fitting error was used henceforth unless specifically annotated). The affinity of hit 2 was further validated using isothermal titration calorimetry (ITC) (Figure 1F). The binding affinity of the other hits was determined using the same approach (Table 1). These four hits probably bound to the same pocket since they shared the same pharmacophore.
The ^15N-labeled AF9 YEATS domain was concentrated to 0.1 mM in phosphate buffered saline at pH 6.8. The HSQC spectra were acquired on the Agilent 500 MHz spectrometer at a ligand/protein molar ratio varying from 0 to 8.0. The dissociation constant Kd was best-fitted using the following equation assuming a 1:1 binding mode, Δδobs=ΔδmaxPt+Lt+Kd−Pt+Lt+Kd^2−4PtLt/2Pt where Pt and Lt represented the total concentrations of the protein and the ligand, respectively, and the Δδobs denoted the observed chemical shift changes relative to the free-form protein. Δδobs was defined as 1/2δH2+0.04δN2 , where δH and δN were the chemical shift changes in the ^1H and ^15N dimension, respectively. The maximum of the chemical shift perturbations Δδmax and the dissociation constant Kd were best-fitted from the dose-dependent chemical shift changes

ENL YEATS domain = target: T2, ENL YEATS domain (Homo sapiens, UniProt Q03111); assay: NMR chemical shift perturbation titration of ENL YEATS; type: binding; settings: determined by CSPs, read-out: affinity
T2 construct: determined from the dose-dependent chemical shift perturbations of ENL YEATS
T2 sequence (Q03111 1-138 limits assumed): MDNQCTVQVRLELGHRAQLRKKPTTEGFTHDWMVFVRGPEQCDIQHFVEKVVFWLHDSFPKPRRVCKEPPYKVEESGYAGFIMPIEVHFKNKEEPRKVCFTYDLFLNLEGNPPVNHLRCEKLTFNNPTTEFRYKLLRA
Procedure: (§2) It is, therefore, difficult to achieve a high selectivity between AF9 and ENL YEATS domains, as underscored by the similar affinity of compound 10 to both AF9 and ENL (38 ± 6 μM) determined by CSPs (Figure 4C), even though compound 10 represented a new chemotype with a binding mode distinct from that of SGC-iMLLT (Figure 4B). […] Therefore, compound 10 was a dual inhibitor of AF9/ENL YEATS domains.
(§3) Figure 4 Selectivity analysis of AF9 inhibitors among human YEATS domains and antiproliferation activities. (A) Sequence alignment of human YEATS domains. Conserved residues are highlighted, with residues interacting with H3K9ac annotated. (B) Superimposition of AF9 and ENL YEATS domain structures in complex with 10 (carbon atom in magenta) and SGC-iMLLT (PDB code: 6HT1), respectively. The hydrogen bonds are delineated by dashed lines. (C) The binding affinity of 10 determined from the dose-dependent chemical shift perturbations of ENL YEATS. The Kd value with the fitting error is annotated. (D) Chemical shift perturbations of the ^15N-labeled YEATS2 YEATS domain induced by 10. (E) The binding affinity of 10 estimated from best fitting of the dose-dependent chemical shift perturbations of the YEATS2 YEATS domain. (F) Viability of MCF7 and AF9-sensitive HGC-27 cells upon treatment with inhibitors at a single dose of 100 μM. […]

YEATS2 YEATS domain = target: T3, YEATS2 YEATS domain (Homo sapiens, UniProt Q9ULM3); assay: NMR chemical shift perturbation titration of 15N-labeled YEATS2 YEATS domain; type: binding
T3 construct: Chemical shift perturbations of the ^15N-labeled YEATS2 YEATS domain induced by 10
T3 sequence (Q9ULM3 200-345 limits assumed): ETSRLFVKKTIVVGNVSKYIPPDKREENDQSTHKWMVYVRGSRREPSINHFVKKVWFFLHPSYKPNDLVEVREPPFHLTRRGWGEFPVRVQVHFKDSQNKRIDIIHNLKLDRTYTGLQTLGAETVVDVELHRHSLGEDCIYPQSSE
Procedure: as §2, §3

NCL-H1975 cells = assay: Cell viability, NCL-H1975; type: cell-based; settings: single dose of 100 μM; AF9-sensitive cell line
MCF7 cells = assay: Cell Counting Kit-8 (CCK-8) cell viability assay, MCF7; settings: single dose of 100 μM
Procedure: (§4) We further assessed the cellular activity of these inhibitors in cancer cells.
(§5) Human MCF7 and HGC-27 cell lines were cultured at 37 °C in a humidified 5% CO2 atmosphere in DMEM (Gibco, Stony Plain, AB, Canada) medium supplemented with 10% fetal bovine serum (FBS) (Gibco) and 1 × penicillin/streptomycin (Gibco). MCF7 and HGC-27 cells were seeded in 96-well plates with approximately 10^4 cells in 100 μL of the medium and treated with the following conditions: fresh culture medium with DMSO (control) or fresh culture medium with inhibitors at a concentration of 100 μM. Cell viability was measured using a Cell Counting Kit-8 (Purchased from TargetMol, Boston, MA, USA) according to manufacturer’s instructions [45]. The absorbance was read at 450 nm with a microplate reader (CLARIOstar, BMG LABTECH, Ortenberg, Germany). Cell viability was calculated as the ratio of experimental group absorbance vs. control group absorbance.

HGC-27 cells = assay: Cell Counting Kit-8 (CCK-8) cell viability assay, HGC-27; settings: AF9-sensitive HGC-27 cells
Procedure: as §4, §5

AF9 YEATS domain [3] = target: T1, AF9 YEATS domain; assay: Isothermal titration calorimetry with AF9 YEATS domain; type: binding
Text: as §1
All ITC titrations were carried out on a MicroCal ITC200 calorimeter (Malvern Instruments Ltd., Malvern, UK) at 298K. The AF9 YEATS domain protein was dialyzed to 20 mM Tris buffer containing 150 mM NaCl at pH 7.4. The concentration of the protein was determined by UV-Vis spectroscopy. The compounds were dried and dissolved in the same buffer. The concentrations of compounds were determined using quantitative NMR30. The ITC data were analyzed using Origin 2019 and best-fitted to the one-site binding model to determine the enthalpies and affinity constants. The binding entropies were calculated using the Gibbs free energy equation.

SMILES | Kd (AF9 YEATS domain [2]) [µM] | LE (AF9 YEATS domain [2]) | also measured
C[C@H]1CCCN1Cc1nc2cc(NC(=O)c3ccc4c(cnn4C)c3)ccc2[nH]1 [SGC-iMLLT] | – | – | potency in MCF7 (in words) (MCF7): weak potency; activities over the rest of the 59 cell lines (in words) [1]: almost no detectable activities
O=C(COCc1ccccc1)Nc1ccc(Cl)cc1 [Compound 10] | 38 ± 6 | – | enhancement of the affinity for the AF9 YEATS domain (AF9 YEATS domain [2]; relative to hit 2): approximately two-fold enhancement; Kd (ENL YEATS domain): 38 ± 6 µM; binding affinity (in words) (YEATS2 YEATS domain; chemical shift of YEATS2 only slightly disturbed): very weak binding affinity; Kd (YEATS2 YEATS domain; estimated from best fitting of dose-dependent chemical shift perturbations): > 200 µM; effect on NCL-H1975 cells (in words) (NCL-H1975 cells): demonstrated inhibitory effects; potency in MCF7 cells (in words) (MCF7 cells): weak potency; proliferation of HGC-27 cells (in words) (HGC-27 cells): suppressed the proliferation of AF9-sensitive HGC-27 cells more effectively in a dose-dependent manner
O=C(COc1ccccc1)Nc1ccc(Cl)cc1 [Compound 11] | 88 ± 30 | 0.31 | –
COCC(=O)Nc1ccc(Cl)c(N)c1 [Compound 2] | 70 ± 10 | 0.41 | ΔH (AF9 YEATS domain [3]; ITC binding enthalpy): -10 ± 2 kcal/mol; Kd (AF9 YEATS domain [3]; ITC, 1:1 binding mode, 298K): 76 ± 10 µM; -TΔS (AF9 YEATS domain [3]; ITC, entropy calculated using the Gibbs free energy equation): 4 kcal/mol
COCC(=O)Nc1ccc(C)c(N)c1 [Compound 1] | 137 ± 24 | 0.38 | –
CNC(=O)Cc1ccc(NC(=O)COC)cc1 [Compound 7] | 270 ± 20 | 0.29 | –
COCC(=O)Nc1ccc(CNC(C)=O)cc1 [Compound 8] | 310 ± 4 | – | –
COCC(=O)Nc1ccc(N)cc1Cl [Compound 3] | 100 ± 10 | 0.39 | –
COCC(=O)Nc1ccc(Cl)c(O)c1 [Compound 6] | 61 ± 4 | 0.41 | change of affinity (in words) (AF9 YEATS domain [2]; relative to hit 2): did not significantly alter the affinity
O=C(COCc1ccccc1O)Nc1ccc(Cl)cc1 [Compound 13] | 70 ± 9 | 0.28 | –
O=C(COCc1ccc(F)cc1)Nc1ccc(Cl)cc1 [Compound 12] | 87 ± 11 | 0.28 | –
CNCC(=O)Nc1ccc(CNC(C)=O)cc1 [Compound 9] | 660 ± 70 | 0.26 | –
COCC(=O)Nc1ccc(Cl)cc1 [Compound 5] | 80 ± 60 | 0.43 | change of affinity (in words) (AF9 YEATS domain [2]; relative to hit 2): did not significantly alter the affinity
O=C(COCc1ccccc1)Nc1c(F)cc(Cl)cc1F [Compound 14] | 26 ± 4 | 0.30 | affinity enhancement relative to that of 10 (AF9 YEATS domain [2]; AF9 YEATS): approximately 30%
COCC(=O)Nc1ccc(N)cc1C [Compound 4] | 440 ± 100 | 0.33 | –
